Test results from PubChem BioAssay AID1259407 (Chemical Carcinogenesis Research Information System (CCRIS), 2018).
Activity calls are given as the source filed them. How the calls were made is not given here.

System: CCRIS mutagenicity, Ames/micronucleus/aberration tests
Test: CCRIS mutagenicity studies

Measured: mutagenic call

CC(=O)ON(C(C)=O)c1ccc2c(c1)Cc1ccccc1-2
active: Test System: AMES SALMONELLA TYPHIMURIUM, Strain/Indicator: TA98, Metabolic Activation: NONE, Method: STANDARD PLATE active; positive | Test System: AMES SALMONELLA TYPHIMURIUM, Strain/Indicator: TA98, Metabolic Activation: RAT, LIVER, S-9, AROCLOR 1254, Method: STANDARD PLATE active; positive | Test System: AMES SALMONELLA TYPHIMURIUM, Strain/Indicator: TA1538, Metabolic Activation: NONE, Method: STANDARD PLATE active; positive | Test System: AMES SALMONELLA TYPHIMURIUM, Strain/Indicator: TA1538, Metabolic Activation: RAT, LIVER, S-9, KC500 OR PHENOBARBITAL, Method: LIQUID SUSPENSION active; positive | Test System: CHINESE HAMSTER V-79, Strain/Indicator: V-79/6-THIOGUANINE, Metabolic Activation: NONE active; positive | Test System: CHINESE HAMSTER V-79, Strain/Indicator: V-79/8-AZAGUANINE, Metabolic Activation: NONE, Method: STANDARD PLATE active; positive | Test System: UDS HUMAN CELLS, Strain/Indicator: THY INCORP (NON-S-PHASE), Metabolic Activation: NONE, Method: LIQUID SCINTILLATION COUNTING active; positive | Test System: UDS HUMAN FIBROBLASTS, Strain/Indicator: THY INCORP (NON-S-PHASE), Metabolic Activation: NONE, Method: AUTORADIOGRAPHY active; positive | Test System: UDS HUMAN FIBROBLASTS, Strain/Indicator: THY INCORP (NON-S-PHASE), Metabolic Activation: NONE, Method: LIQUID SCINTILLATION COUNTING active; positive | Test System: UDS HUMAN LYMPHOCYTES, Strain/Indicator: THY INCORP (NON-S-PHASE), Metabolic Activation: NONE, Method: LIQUID SCINTILLATION COUNTING active; positive | Test System: UDS RODENT CELLS, Strain/Indicator: THY INCORP (NON-S-PHASE), Metabolic Activation: NONE, Method: AUTORADIOGRAPHY active; positive | Test System: UDS RODENT CELLS, Strain/Indicator: THY INCORP (NON-S-PHASE), Metabolic Activation: NONE, Method: LIQUID SCINTILLATION COUNTING active; positive | Test System: UDS RODENT HEPATOCYTES, Strain/Indicator: THY INCORP (NON-S-PHASE), Method: LIQUID SCINTILLATION COUNTING active; positive | Test System: UDS RODENT PRIMARY CELLS, Strain/Indicator: THY INCORP (NON-S-PHASE), Metabolic Activation: NONE, Method: AUTORADIOGRAPHY active; positive
